From publication PMC12336439 (Archiv Der Pharmazie, 2025)
Marks after values point to notes of the source that are not given here.

What was measured:
Assay type in all cases: binding
[1] = molecular target: T1, USP7 (Homo sapiens, UniProt Q93009); assay: Intact protein MS (UHPLC-ESI-MS), covalent modification of USP7; details: 24 h incubation at 20°C, protein-to-compound ratio 1:31.25
T1 construct: USP7 catalytic domain (USP7CD) (208‐560); made in house
Method: The DSF results described above were validated by UHPLC‐ESI‐MS to verify possible covalent binding through a corresponding mass shift. Intact protein MS is an important screening method in irreversible‐covalent hit identification and is especially suitable for covalent fragment‐based drug discovery (FBDD). It allows for the identification of covalent binders by detecting covalent protein‐compound adducts, thus making use of the stability of the covalent bond.
USP7 was prepared in Tris buffer (25 mM Tris pH 8.0, 150 mM NaCl, 5 mM TCEP) with a protein‐to‐compound ratio of 1:31.25 and 5% (v/v) DMSO. The protein‐compound mixtures were all incubated at 20°C for 24 h on a rotating shaker. The analysis of intact protein mass was carried out using UHPLC‐ESI‐MS measurements, with data acquisition and data analysis as previously described.

[2] = molecular target: T2, USP7asoc (active site only cysteine) (Homo sapiens, UniProt Q93009, C300S/C315S/C334S/C478S/C488S/C510S); assay: Differential scanning fluorimetry (DSF), melting temperature shift of USP7asoc mutant; details: for ∆T m ± SD USP7asoc: 8 µM protein, 250 µM compound (1:31.25)
T2 construct: (208‐560, C300/315/334/448/478/510S); made in house
T2 sequence (Q93009 with tags, fused parts or gaps C300S/C315S/C334S/C478S/C488S/C510S): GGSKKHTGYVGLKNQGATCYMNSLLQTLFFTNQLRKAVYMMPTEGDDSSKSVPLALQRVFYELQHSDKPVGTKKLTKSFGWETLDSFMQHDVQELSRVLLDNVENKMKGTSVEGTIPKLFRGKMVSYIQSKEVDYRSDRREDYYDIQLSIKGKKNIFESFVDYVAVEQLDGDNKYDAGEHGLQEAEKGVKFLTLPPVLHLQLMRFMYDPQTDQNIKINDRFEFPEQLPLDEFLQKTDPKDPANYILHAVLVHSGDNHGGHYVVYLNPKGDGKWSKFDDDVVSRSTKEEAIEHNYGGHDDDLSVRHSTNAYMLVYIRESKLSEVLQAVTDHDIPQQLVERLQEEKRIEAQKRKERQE
Method: USP7asoc only retains the catalytic Cys223 while all the other six cysteines are mutated to serine. DSF was selected for initial assessment since it is an efficient and rapid primary screening method readily available to our lab. […] An important consideration when assessing covalent inhibitors is the time dependence of covalent target occupancy and thus potency, which is determined by the reaction kinetics of the covalent binding event. To allow for drawing conclusions on compounds with slower reaction kinetics, incubation times of 30 min, 4 h, and 24 h at 20°C were chosen for the DSF screen with USP7 (Table 1 and Figures 2 and 3). The threshold at which compounds were considered (de‐)stabilizers was defined at 0.5°C. In parallel, the intrinsic reactivity of a set of representative compounds was evaluated in a glutathione reactivity assay. […] The expression and purification of USP7 catalytic domain (USP7CD) (208‐560) and USP7asoc (active site only cysteine) by using a pET24a(+)_HLT_USP7 construct were performed as previously described. […] For the USP7asoc, six of the seven cysteines are mutated to serines (208‐560, C300/315/334/448/478/510S). All utilized protein sequences are depicted in Supporting Information S2: Table S.3.1. The melting temperatures of USP7 and USP7asoc in the presence or absence of fragments were determined by DSF on a Qiagen Rotor‐Q Model‐5‐Plex HRM real‐time PCR instrument (Qiagen, Hilden, Germany). SYPRO Orange (Life Technologies Corporation, Eugene, OR, USA) was used as a fluorescent dye at a final concentration of 5x. The protein concentration was 8 µM, and the final compound concentration was 250 µM, corresponding to a protein‐to‐compound ratio of 1:31.25. All compounds were dissolved in dimethyl sulfoxide (DMSO) and the proteins in Tris buffer (25 mM Tris pH 8.0, 150 mM NaCl, 5 mM TCEP, 5% (v/v) DMSO). All measurements were performed after 30 min, 4 h, and 24 h of incubation and at least in triplicate. DSF experiments were carried out with a constant heating rate of 270°C/h. The temperature was ramped from 28°C to 60°C–70°C with excitation and emission filters set at 470 nm and 610 nm, respectively. The melting temperatures (T m) of USP7 and USP7asoc were determined from the maxima of the first derivatives of the melting curves in OriginPro2020 (OriginLab, Northampton, MA, USA). The ∆T m was calculated by subtraction of the T m of the protein sample with pure DMSO from the T m of the protein sample mixed with compound. Error propagation was used to average multiple runs for a compound. A compound was considered to be a hit if the shift in the ∆T m was at least 0.50°C [55].

[3] = molecular target: T3, USP7asoc (Homo sapiens, UniProt Q93009, C300S/C315S/C334S/C478S/C488S/C510S); assay: Intact protein MS (UHPLC-ESI-MS), covalent modification of USP7asoc; details: 24 h incubation at 20°C, protein-to-compound ratio 1:31.25
T3 construct: (208‐560, C300/315/334/448/478/510S); made in house
T3 sequence (Q93009 with tags, fused parts or gaps C300S/C315S/C334S/C478S/C488S/C510S): as above
Method: The DSF results described above were validated by UHPLC‐ESI‐MS to verify possible covalent binding through a corresponding mass shift. Intact protein MS is an important screening method in irreversible‐covalent hit identification and is especially suitable for covalent fragment‐based drug discovery (FBDD). It allows for the identification of covalent binders by detecting covalent protein‐compound adducts, thus making use of the stability of the covalent bond. USP7 was prepared in Tris buffer (25 mM Tris pH 8.0, 150 mM NaCl, 5 mM TCEP) with a protein‐to‐compound ratio of 1:31.25 and 5% (v/v) DMSO. The protein‐compound mixtures were all incubated at 20°C for 24 h on a rotating shaker. The analysis of intact protein mass was carried out using UHPLC‐ESI‐MS measurements, with data acquisition and data analysis as previously described.

T1 sequence (Q93009 with tags, fused parts or gaps): as the sequence (Q93009 with tags, fused parts or gaps C300S/C315S/C334S/C478S/C488S/C510S) above, with S96C, S111C, S130C, S274C, S284C, S306C counted along it

Row | ∆T m ± SD USP7asoc ([2]; 30 min incubation at 20°C) | ∆T m ± SD USP7asoc ([2]; 4 h incubation at 20°C) | ∆T m ± SD USP7asoc ([2]; 24 h incubation at 20°C) | ∆T m of small shoulder (second smaller peak) of the melting curve of USP7asoc ([2]; 24 h incubation, 250 µM compound) | Compound | protein species in deconvoluted mass spectrum of USP7 [1] | protein species in deconvoluted mass spectrum of USP7asoc [3]
1 | –0.25 ± 0.23 °C | 0.20 ± 0.09 °C | 0.23 ± 0.08 ^b °C |  | CCn1cc(-c2cccc3cnc(Nc4nc(F)ccc4[N+](=O)[O-])cc23)cn1 [7c, 5‐(1‐Ethyl‐1H‐pyrazol‐4‐yl)‐N‐(6‐fluoro‐3‐nitropyridin‐2‐yl)isoquinolin‐3‐amine] | mainly showed the attachment of a single molecule to USP7 and USP7asoc | mainly showed the attachment of a single molecule to USP7 and USP7asoc
2 | –0.30 ± 0.12 °C | –0.15 ± 0 °C | 0.05 ± 0.17 °C |  | O=[N+]([O-])c1ccc(F)nc1Nc1cc2c(-c3ccc(-c4ccncc4)cc3)cccc2cn1 [7i, N‐(6‐Fluoro‐3‐nitropyridin‐2‐yl)‐5‐[4‐(pyridin‐4‐yl)phenyl]isoquinolin‐3‐amine] | unmodified USP7 and USP7asoc as the main peak | unmodified USP7 and USP7asoc as the main peak
3 | 0.05 ± 0.09 °C | 0.45 ± 0.12 °C | 0.38 ± 0.06 °C |  | Cn1ccc(-c2cccc3cnc(Nc4nc(F)ccc4[N+](=O)[O-])cc23)c1 [7b, N‐(6‐Fluoro‐3‐nitropyridin‐2‐yl)‐5‐(1‐methyl‐1H‐pyrrol‐3‐yl)isoquinolin‐3‐amine] | unmodified protein species as a main peak for both USP7 and USP7asoc | unmodified protein species as a main peak for both USP7 and USP7asoc
4 | –0.35 ± 0.09 °C | –0.13 ± 0.04 °C | 0.40 ± 0.09 ^b °C | about –5 °C | O=[N+]([O-])c1ccc(F)nc1Nc1cc2c(-c3cnn(C4CC4)c3)cccc2cn1 [7e, 5‐(1‐Cyclopropyl‐1H‐pyrazol‐4‐yl)‐N‐(6‐fluoro‐3‐nitropyridin‐2‐yl)isoquinolin‐3‐amine] | mono‐arylated USP7 and USP7asoc species as main peaks | mono‐arylated USP7 and USP7asoc species as main peaks
5 | 0.00 ± 0 °C | 0.03 ± 0.08 °C | 0.35 ± 0.06 °C |  | CCCn1cc(-c2cccc3cnc(Nc4nc(F)ccc4[N+](=O)[O-])cc23)cn1 [7d, N‐(6‐Fluoro‐3‐nitropyridin‐2‐yl)‐5‐(1‐propyl‐1H‐pyrazol‐4‐yl)isoquinolin‐3‐amine] | single modified protein as the main signal | single modified protein as the main signal
